Results taken from patent US20090156577A1, “7-AMINO ALKYLIDENYL-HETEROCYCLIC QUINOLONES AND NAPHTHYRIDONES” (priority 2004, published 2009).
In brackets after ≈: the same amount, converted by molar mass. Where two headings read alike, the source gives them in different places.

Test system: pathogenic bacteria
Experiment: MIC by microdilution broth method (NCCLS M7-A4), in vitro antibacterial activity
Type: cell-based
Method in brief: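 Broth microdilution per NCCLS M7-A4: two-fold serial dilutions in cation-adjusted Mueller-Hinton broth, inoculum about 5×10^4 CFU/well. Trays incubated 16–20 h at 35 °C. MIC read by comparing growth against no-compound growth controls.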

[1] = Staphylococcus aureus, Organism A: Staphylococcus aureus OC4172, read-out: MIC
[2] = Streptococcus pneumoniae, ATCC49619, Organism E: Streptococcus pneumoniae ATCC 49619, read-out: MIC
[3] = Streptococcus pneumoniae, Organism B: fluoroquinolone-resistant clinical isolate of Streptococcus pneumoniae (QRDR amino acid substitutions)
[4] = Streptococcus pneumoniae, Organism C: fluoroquinolone-resistant clinical isolate of Streptococcus pneumoniae (QRDR amino acid substitutions)
[5] = Streptococcus pneumoniae, Organism D: fluoroquinolone-resistant clinical isolate of Streptococcus pneumoniae (QRDR amino acid substitutions)

Structure (SMILES) | MIC [1] [µg/mL] | MIC [2] [µg/mL] | MIC [3] [µg/mL] | MIC [4] [µg/mL] | MIC [5] [µg/mL]
C[C@H]1COc2c(N3CC(=C(Cl)CO)C3)c(F)cc3c(=O)c(C(=O)O)cn1c23 [Compound 362, (S)-9-[3-(1-Chloro-2-hydroxy-ethylidene)-azetidin-1-yl]-8-fluoro-3-methyl-6-oxo-2,3-dihydro-6H-1-oxa-3a-aza-phenalene-5-carboxylic Acid] | 0.03 (≈ 0.076 µM) | 0.5 (≈ 1.27 µM) | 8 (≈ 20.3 µM) | > 16 | 8 (≈ 20.3 µM)
COc1c(N2CC(=C(Cl)CO)C2)c(F)cc2c(=O)c(C(=O)O)cn([C@@H]3C[C@@H]3F)c12 [Compound 363, 7-[3-(1-Chloro-2-hydroxy-ethylidene)-azetidin-1-yl]-6-fluoro-(1R,2S)-1-(2-fluoro-cyclopropyl)-8-methoxy-4-oxo-1,4-dihydro-quinoline-3-carboxylic Acid] | 0.03 (≈ 0.0703 µM) | 0.5 (≈ 1.17 µM) | 4 (≈ 9.37 µM) | > 16 | 16 (≈ 37.5 µM)
Cc1c(F)c(N2CC(=C(Cl)CO)C2)cc2c1c(=O)c(C(=O)O)cn2C1CC1 [Compound 364, 7-[3-(1-Chloro-2-hydroxy-ethylidene)-azetidin-1-yl]-1-cyclopropyl-6-fluoro-5-methyl-4-oxo-1,4-dihydro-quinoline-3-carboxylic Acid] | 0.06 (≈ 0.153 µM) | 2 (≈ 5.09 µM) | > 16 | > 16 | > 16
C[C@H]1COc2c(N3CC(=CCN)C3)c(F)cc3c(=O)c(C(=O)O)cn1c23 [Compound 365, (S)-9-[3-(2-Amino-ethylidene)-azetidin-1-yl]-8-fluoro-3-methyl-6-oxo-2,3-dihydro-6H-1-oxa-3a-aza-phenalene-5-carboxylic Acid] | 0.12 (≈ 0.334 µM) | 2 (≈ 5.57 µM) |  | > 16 | > 16
CC(CN)=C1CN(c2c(F)cc3c(=O)c(C(=O)O)cn4c3c2OC[C@@H]4C)C1 [Compound 366, (S)-9-[3-(2-Amino-1-methyl-ethylidene)-azetidin-1-yl]-8-fluoro-3-methyl-6-oxo-2,3-dihydro-6H-1-oxa-3a-aza-phenalene-5-carboxylic Acid] | 4 (≈ 10.7 µM) | 4 (≈ 10.7 µM) |  | > 16 | 8 (≈ 21.4 µM)
CC(CN)=C1CN(c2cc3c(c(C)c2F)c(=O)c(C(=O)O)cn3C2CC2)C1 [Compound 367, 7-[3-(2-Amino-1-methyl-ethylidene)-azetidin-1-yl]-1-cyclopropyl-6-fluoro-5-methyl-4-oxo-1,4-dihydro-quinoline-3-carboxylic Acid] | ≤ 0.015 | 0.12 (≈ 0.323 µM) | 0.25 (≈ 0.673 µM) | 1 (≈ 2.69 µM) | 1 (≈ 2.69 µM)
COc1c(N2CC(=C(C)CN)C2)c(F)cc2c(=O)c(C(=O)O)cn([C@@H]3C[C@@H]3F)c12 [Compound 368, 7-[3-(2-Amino-1-methyl-ethylidene)-azetidin-1-yl]-6-fluoro-(1R,2S)-1-(2-fluoro-cyclopropyl)-8-methoxy-4-oxo-1,4-dihydro-quinoline-3-carboxylic Acid] | 0.25 (≈ 0.617 µM) | 1 (≈ 2.47 µM) | 8 (≈ 19.7 µM) | > 16 | 8 (≈ 19.7 µM)
NCC(Cl)=C1CCN(c2c(F)c(N)c3c(=O)c(C(=O)O)cn(C4CC4)c3c2F)CC1 [Compound 369, 5-Amino-7-[4-(2-amino-1-chloro-ethylidene)-piperidin-1-yl]-1-cyclopropyl-6,8-difluoro-4-oxo-1,4-dihydro-quinoline-3-carboxylic Acid] | 0.03 (≈ 0.0684 µM) | 0.03 (≈ 0.0684 µM) | 0.06 (≈ 0.137 µM) | 0.5 (≈ 1.14 µM) | 0.12 (≈ 0.273 µM)
NCC(Cl)=C1CCN(c2c(F)cc3c(=O)c(C(=O)O)cn(C4CC4)c3c2OCF)CC1 [Compound 370, 7-[4-(2-Amino-1-chloro-ethylidene)-piperidin-1-yl]-1-cyclopropyl-6-fluoro-8-fluoromethoxy-4-oxo-1,4-dihydro-quinoline-3-carboxylic Acid] | 2 (≈ 4.41 µM) | 8 (≈ 17.6 µM) | > 16 | > 16 | 16 (≈ 35.3 µM)
Cc1c(N2CCC(=C(Cl)CN)CC2)c(F)cc2c(=O)c(C(=O)O)cn(C3CC3)c12 [Compound 371, 7-[4-(2-Amino-1-chloro-ethylidene)-piperidin-1-yl]-1-cyclopropyl-6-fluoro-8-methyl-4-oxo-1,4-dihydro-quinoline-3-carboxylic Acid] | ≤ 0.015 | 0.03 (≈ 0.0714 µM) | 0.06 (≈ 0.143 µM) | 0.12 (≈ 0.286 µM) | 0.12 (≈ 0.286 µM)
C[C@H]1COc2c(N3CCC/C(=C(/Cl)CN)CC3)c(F)cc3c(=O)c(C(=O)O)cn1c23 [Compound 372, (3S)-9-[(Z)-4-(2-Amino-1-chloro-ethylidene)-azepan-1-yl]-8-fluoro-3-methyl-6-oxo-2,3-dihydro-6H-1-oxa-3a-aza-phenalene-5-carboxylic Acid] | 0.5 (≈ 1.15 µM) | 2 (≈ 4.59 µM) |  | 16 (≈ 36.7 µM) | 8 (≈ 18.4 µM)
C[C@H]1COc2c(N3CCC/C(=C(\Cl)CN)CC3)c(F)cc3c(=O)c(C(=O)O)cn1c23 [Compound 373, (3S)-9-[(E)-4-(2-Amino-1-chloro-ethylidene)-azepan-1-yl]-8-fluoro-3-methyl-6-oxo-2,3-dihydro-6H-1-oxa-3a-aza-phenalene-5-carboxylic Acid] | 0.06 (≈ 0.138 µM) | 0.12 (≈ 0.275 µM) | 0.5 (≈ 1.15 µM) | 2 (≈ 4.59 µM) | 1 (≈ 2.29 µM)
NC/C(F)=C1\CCCN(c2nc3c(cc2F)c(=O)c(C(=O)O)cn3C2CC2)C1 [Compound 374, (Z)-7-[3-(2-Amino-1-fluoro-ethylidene)-piperidin-1-yl]-1-cyclopropyl-6-fluoro-4-oxo-1,4-dihydro-[1,8]naphthyridine-3-carboxylic acid] | 0.06 (≈ 0.154 µM) | 0.5 (≈ 1.28 µM) | 2 (≈ 5.12 µM) | 16 (≈ 41 µM) | 4 (≈ 10.2 µM)
NC/C=C1/CCCN(c2nc3c(cc2F)c(=O)c(C(=O)O)cn3C2CC2)C1 [Compound 375, (Z)-7-[3-(2-Amino-ethylidene)-piperidin-1-yl]-1-cyclopropyl-6-fluoro-4-oxo-1,4-dihydro-[1,8]naphthyridine-3-carboxylic acid] | 0.12 (≈ 0.322 µM) | 8 (≈ 21.5 µM) | > 16 | > 16 | > 16
NC/C=C1\CCCN(c2nc3c(cc2F)c(=O)c(C(=O)O)cn3C2CC2)C1 [Compound 376, (E)-7-[3-(2-Amino-ethylidene)-piperidin-1-yl]-1-cyclopropyl-6-fluoro-4-oxo-1,4-dihydro-[1,8]naphthyridine-3-carboxylic acid] | 0.25 (≈ 0.671 µM) | 1 (≈ 2.69 µM) |  | > 16 | > 16
C/C(CN)=C1/CCCN(c2nc3c(cc2F)c(=O)c(C(=O)O)cn3C2CC2)C1 [Compound 377, (E)-7-[3-(2-Amino-1-methyl-ethylidene)-piperidin-1-yl]-1-cyclopropyl-6-fluoro-4-oxo-1,4-dihydro-[1,8]naphthyridine-3-carboxylic acid] | 0.5 (≈ 1.29 µM) | 4 (≈ 10.4 µM) | 16 (≈ 41.4 µM) | 8 (≈ 20.7 µM) | > 16
NC/C(Cl)=C1\CCCN(c2nc3c(cc2F)c(=O)c(C(=O)O)cn3C2CC2)CC1 [Compound 378, (Z)-7-[4-(2-Amino-1-chloro-ethylidene)-azepan-1-yl]-1-cyclopropyl-6-fluoro-4-oxo-1,4-dihydro-[1,8]naphthyridine-3-carboxylic acid] | 0.25 (≈ 0.594 µM) | 1 (≈ 2.38 µM) |  | 4 (≈ 9.5 µM) | 16 (≈ 38 µM)
NC/C(Cl)=C1/CCCN(c2nc3c(cc2F)c(=O)c(C(=O)O)cn3C2CC2)CC1 [Compound 379, (E)-7-[4-(2-Amino-1-chloro-ethylidene)-azepan-1-yl]-1-cyclopropyl-6-fluoro-4-oxo-1,4-dihydro-[1,8]naphthyridine-3-carboxylic acid] | 0.25 (≈ 0.594 µM) | 2 (≈ 4.75 µM) | 1 (≈ 2.38 µM) | 8 (≈ 19 µM) | 16 (≈ 38 µM)
C/C(CN)=C1\CCCN(c2nc3c(cc2F)c(=O)c(C(=O)O)cn3-c2ccc(F)cc2F)C1 [Compound 380, (Z)-7-[3-(2-Amino-1-methyl-ethylidene)-piperidin-1-yl]-1-(2,4-difluoro-phenyl)-6-fluoro-4-oxo-1,4-dihydro-[1,8]naphthyridine-3-carboxylic acid] | 0.12 (≈ 0.262 µM) | 0.5 (≈ 1.09 µM) | 8 (≈ 17.5 µM) | 8 (≈ 17.5 µM) | 4 (≈ 8.73 µM)
C/C(CN)=C1/CCCN(c2nc3c(cc2F)c(=O)c(C(=O)O)cn3-c2ccc(F)cc2F)C1 [Compound 381, (E)-7-[3-(2-Amino-1-methyl-ethylidene)-piperidin-1-yl]-1-(2,4-difluoro-phenyl)-6-fluoro-4-oxo-1,4-dihydro-[1,8]naphthyridine-3-carboxylic acid] | 0.5 (≈ 1.09 µM) | 4 (≈ 8.73 µM) | 4 (≈ 8.73 µM) | > 16 | > 16
NC/C(F)=C1\CCCN(c2cc3c(cc2F)c(=O)c(C(=O)O)cn3C2CC2)C1 [Compound 382, (Z)-7-[3-(2-Amino-1-fluoro-ethylidene)-piperidin-1-yl]-1-cyclopropyl-6-fluoro-4-oxo-1,4-dihydro-quinoline-3-carboxylic acid] | 0.5 (≈ 1.28 µM) | 2 (≈ 5.14 µM) | 8 (≈ 20.5 µM) | > 16 | 16 (≈ 41.1 µM)
NC/C=C1/CCCN(c2cc3c(cc2F)c(=O)c(C(=O)O)cn3C2CC2)C1 [Compound 383, (Z)-7-[3-(2-Amino-ethylidene)-piperidin-1-yl]-1-cyclopropyl-6-fluoro-4-oxo-1,4-dihydro-quinoline-3-carboxylic acid] | 0.12 (≈ 0.323 µM) | 1 (≈ 2.69 µM) | 8 (≈ 21.5 µM) | > 16 | > 16
NC/C=C1\CCCN(c2cc3c(cc2F)c(=O)c(C(=O)O)cn3C2CC2)C1 [Compound 384, (E)-7-[3-(2-Amino-ethylidene)-piperidin-1-yl]-1-cyclopropyl-6-fluoro-4-oxo-1,4-dihydro-quinoline-3-carboxylic acid] | 1 (≈ 2.69 µM) | 8 (≈ 21.5 µM) |  | > 16 | > 16
